Data taken from publication PMC5933747 (PLoS ONE, 2018).

What was measured:
Type in all cases: cell-based
human NaV1.5 = human NaV1.5 (Homo sapiens, UniProt Q14524); assay: PatchXpress (PX) automated electrophysiology, human NaV1.5; conditions: human; PX platform; at least ten cells, two to three data points per concentration
human NaV1.4 = human NaV1.4 (Homo sapiens, UniProt P35499); assay: PatchXpress (PX) automated electrophysiology, human NaV1.4
How it was run: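 Human NaV channels stably expressed in HEK293 or CHO cells, recorded by whole-cell patch clamp on PatchXpress using voltage protocols described elsewhere.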

human NaV1.7 = human NaV1.7 (Homo sapiens, UniProt Q15858); assay: PatchXpress (PX) automated electrophysiology, human NaV1.7 in HEK293 cells; conditions: PX platform, voltage protocol with 20% of channels inactivated, at least ten cells, two to three data points per concentration

human NaV1.4, sequence (P35499 whole entry): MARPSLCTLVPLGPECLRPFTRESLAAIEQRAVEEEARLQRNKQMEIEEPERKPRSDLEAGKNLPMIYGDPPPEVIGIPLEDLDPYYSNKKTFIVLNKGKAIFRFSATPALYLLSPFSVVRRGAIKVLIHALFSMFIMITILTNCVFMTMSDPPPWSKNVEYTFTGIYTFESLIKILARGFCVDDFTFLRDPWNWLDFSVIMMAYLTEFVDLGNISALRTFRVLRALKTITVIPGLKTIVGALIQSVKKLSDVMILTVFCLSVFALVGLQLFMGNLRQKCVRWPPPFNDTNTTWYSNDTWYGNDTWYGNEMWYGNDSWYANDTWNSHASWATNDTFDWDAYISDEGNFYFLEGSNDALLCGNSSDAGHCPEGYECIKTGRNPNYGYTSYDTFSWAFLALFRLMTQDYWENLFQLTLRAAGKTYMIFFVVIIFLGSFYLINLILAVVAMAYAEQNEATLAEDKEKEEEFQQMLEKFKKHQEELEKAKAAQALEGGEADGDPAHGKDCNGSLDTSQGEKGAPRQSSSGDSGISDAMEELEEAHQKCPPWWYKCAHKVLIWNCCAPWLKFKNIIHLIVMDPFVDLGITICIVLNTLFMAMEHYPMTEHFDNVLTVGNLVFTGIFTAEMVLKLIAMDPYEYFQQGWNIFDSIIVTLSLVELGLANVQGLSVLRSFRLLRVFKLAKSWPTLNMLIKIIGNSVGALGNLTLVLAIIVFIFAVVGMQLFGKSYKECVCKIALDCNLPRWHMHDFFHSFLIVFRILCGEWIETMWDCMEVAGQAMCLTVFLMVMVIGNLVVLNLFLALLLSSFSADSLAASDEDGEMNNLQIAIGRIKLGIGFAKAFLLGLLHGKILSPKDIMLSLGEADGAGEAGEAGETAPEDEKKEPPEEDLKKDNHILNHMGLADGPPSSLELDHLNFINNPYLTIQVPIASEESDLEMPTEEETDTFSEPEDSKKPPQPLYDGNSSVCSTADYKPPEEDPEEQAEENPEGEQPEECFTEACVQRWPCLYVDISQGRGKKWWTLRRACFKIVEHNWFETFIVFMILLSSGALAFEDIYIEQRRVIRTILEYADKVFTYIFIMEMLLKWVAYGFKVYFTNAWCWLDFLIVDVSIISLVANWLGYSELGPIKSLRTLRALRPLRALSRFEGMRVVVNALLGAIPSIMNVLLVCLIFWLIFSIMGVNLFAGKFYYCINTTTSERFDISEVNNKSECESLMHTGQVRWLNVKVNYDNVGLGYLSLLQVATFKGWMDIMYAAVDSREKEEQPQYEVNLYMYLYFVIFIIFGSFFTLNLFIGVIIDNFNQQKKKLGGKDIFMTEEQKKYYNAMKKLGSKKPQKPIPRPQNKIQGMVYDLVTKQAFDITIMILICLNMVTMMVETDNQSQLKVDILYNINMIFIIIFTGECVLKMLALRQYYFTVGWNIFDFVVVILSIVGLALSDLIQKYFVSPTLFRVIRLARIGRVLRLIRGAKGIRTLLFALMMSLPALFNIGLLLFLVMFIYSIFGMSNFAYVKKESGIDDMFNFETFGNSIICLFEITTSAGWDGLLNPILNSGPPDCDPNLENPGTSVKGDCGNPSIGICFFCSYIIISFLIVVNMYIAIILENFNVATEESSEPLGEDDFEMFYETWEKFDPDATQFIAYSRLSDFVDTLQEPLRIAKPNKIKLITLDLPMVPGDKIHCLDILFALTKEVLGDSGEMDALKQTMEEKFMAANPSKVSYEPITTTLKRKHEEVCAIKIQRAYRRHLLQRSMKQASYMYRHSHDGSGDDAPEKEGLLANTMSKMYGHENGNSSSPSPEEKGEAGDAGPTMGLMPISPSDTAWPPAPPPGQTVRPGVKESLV
human NaV1.5, sequence (Q14524 whole entry): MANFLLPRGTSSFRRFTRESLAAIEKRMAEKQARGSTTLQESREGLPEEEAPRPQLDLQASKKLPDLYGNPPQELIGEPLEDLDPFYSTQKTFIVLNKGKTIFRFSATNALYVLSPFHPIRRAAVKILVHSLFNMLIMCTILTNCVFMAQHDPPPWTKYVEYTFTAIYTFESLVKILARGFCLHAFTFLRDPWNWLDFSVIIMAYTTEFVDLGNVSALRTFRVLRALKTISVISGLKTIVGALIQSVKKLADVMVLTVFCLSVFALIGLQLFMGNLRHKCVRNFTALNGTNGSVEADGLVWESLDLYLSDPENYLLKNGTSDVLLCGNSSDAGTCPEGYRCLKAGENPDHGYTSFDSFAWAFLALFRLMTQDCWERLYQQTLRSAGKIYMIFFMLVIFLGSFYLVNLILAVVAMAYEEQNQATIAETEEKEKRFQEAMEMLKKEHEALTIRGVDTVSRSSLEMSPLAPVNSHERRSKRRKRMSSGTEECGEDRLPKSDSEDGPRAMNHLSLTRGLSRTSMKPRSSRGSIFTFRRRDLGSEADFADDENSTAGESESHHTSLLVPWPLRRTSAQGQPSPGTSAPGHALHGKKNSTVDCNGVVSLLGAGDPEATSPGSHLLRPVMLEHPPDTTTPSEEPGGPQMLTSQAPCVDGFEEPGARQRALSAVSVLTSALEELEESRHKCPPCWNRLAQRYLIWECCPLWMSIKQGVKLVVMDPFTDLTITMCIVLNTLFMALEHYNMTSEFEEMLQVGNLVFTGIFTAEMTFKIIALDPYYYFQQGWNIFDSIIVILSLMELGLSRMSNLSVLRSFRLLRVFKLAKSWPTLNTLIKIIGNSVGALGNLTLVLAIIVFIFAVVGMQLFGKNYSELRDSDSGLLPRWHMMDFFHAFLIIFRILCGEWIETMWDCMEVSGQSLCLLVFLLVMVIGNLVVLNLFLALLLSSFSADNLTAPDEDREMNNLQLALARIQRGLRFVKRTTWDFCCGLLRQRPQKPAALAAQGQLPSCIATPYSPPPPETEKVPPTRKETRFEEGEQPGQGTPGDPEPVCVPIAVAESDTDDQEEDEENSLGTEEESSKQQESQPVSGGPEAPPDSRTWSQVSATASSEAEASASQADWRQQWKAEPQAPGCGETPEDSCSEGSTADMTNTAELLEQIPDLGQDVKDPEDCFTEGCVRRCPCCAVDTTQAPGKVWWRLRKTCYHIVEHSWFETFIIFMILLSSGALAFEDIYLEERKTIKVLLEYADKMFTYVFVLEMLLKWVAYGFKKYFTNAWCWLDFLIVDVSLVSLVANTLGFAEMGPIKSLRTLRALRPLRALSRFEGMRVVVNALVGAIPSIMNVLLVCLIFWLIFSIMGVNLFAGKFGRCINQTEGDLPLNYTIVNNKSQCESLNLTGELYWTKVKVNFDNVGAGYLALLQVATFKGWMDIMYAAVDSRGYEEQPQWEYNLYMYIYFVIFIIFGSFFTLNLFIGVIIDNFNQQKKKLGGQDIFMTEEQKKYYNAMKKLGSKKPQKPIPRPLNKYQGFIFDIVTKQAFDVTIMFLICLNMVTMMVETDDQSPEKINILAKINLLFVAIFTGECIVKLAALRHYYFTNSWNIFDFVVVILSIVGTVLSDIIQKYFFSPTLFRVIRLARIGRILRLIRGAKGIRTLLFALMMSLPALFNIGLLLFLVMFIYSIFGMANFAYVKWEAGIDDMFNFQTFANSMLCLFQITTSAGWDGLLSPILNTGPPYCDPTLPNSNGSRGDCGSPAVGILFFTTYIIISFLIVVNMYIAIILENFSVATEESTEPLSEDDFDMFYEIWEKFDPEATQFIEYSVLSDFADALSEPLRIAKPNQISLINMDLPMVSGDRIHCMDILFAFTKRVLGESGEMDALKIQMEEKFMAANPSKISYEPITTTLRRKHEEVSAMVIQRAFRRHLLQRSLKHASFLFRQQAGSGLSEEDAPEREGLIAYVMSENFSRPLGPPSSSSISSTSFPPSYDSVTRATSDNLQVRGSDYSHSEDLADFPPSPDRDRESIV

C#CC[C@H](N)C(=O)N[C@@H](Cc1ccc(O)cc1)C(=O)N[C@H]1CSSC[C@@H]2NC(=O)[C@@H]3CSSC[C@@H](C(=O)N[C@@H](CCCNC(=N)N)C(=O)N[C@@H](CCCCN)C(=O)N[C@H](C(=O)N[C@H](C(N)=O)[C@@H](C)CC)[C@@H](C)CC)NC(=O)[C@H](Cc4c[nH]c5ccccc45)NC(=O)[C@H](CC(C)C)NC(=O)[C@H](CCCCN)NC(=O)[C@H](CSSC[C@H](NC(=O)[C@H]([C@@H](C)O)NC(=O)[C@H](Cc4c[nH]c5ccccc45)NC(=O)[C@H](CCCC)NC(=O)[C@H](Cc4c[nH]c5ccccc45)NC(=O)[C@H](CCCCN)NC(=O)[C@H](CCC(N)=O)NC1=O)C(=O)N[C@@H](CC(=O)O)C(=O)N[C@@H](CO)C(=O)N[C@@H](CCCCN)C(=O)N[C@@H](CCCNC(=N)N)C(=O)N[C@@H](C)C(=O)N3)NC(=O)[C@H](CCCNC(=N)N)NC(=O)[C@H](CC(C)C)NC(=O)CNC(=O)[C@H](CCC(=O)O)NC2=O [Peptide 3, Pra-[Nle6]JzTx-V(1–29)]
IC50 (human NaV1.5): 1090 nM | selectivity for NaV1.7 over NaV1.4 (human NaV1.4; PX platform IC50 ratio): 5 fold | IC50 (human NaV1.4; PX platform, at least ten cells, two to three data points per concentration): 6.2 nM | IC50 (human NaV1.7): 1.2 nM
